Assay results: patent US20140057895A1, “INDAZOLE- AND PYRROLOPYRIDINE-DERIVATIVE AND PHARMACEUTICAL USE THEREOF” (priority 2011, published 2014)
pEC50, pIC50: −log10 of the molar value. Where “and” joins values, the source holds several entries; their conditions need not be identical. Equal entries are not always repeated. Structures can show the parent of a compound that is named as a salt. Marks after values point to notes of the source that are not given here.

Assays:
[1] = test system: scopolamine and MK801-induced cognitive impairment; assay: Example 5: Y-maze test, scopolamine and MK801-induced deficits, co-administration with donepezil (Table 102); assay type: in vivo, ddY mouse; settings: Donepezil 10 mg/kg, p.o. alone
Text: (§1) Thus, scopolamine-induced cognitive impairment model, one of the AD-like model, has been used to predict pharmacodynamic signals of putative procognitive compounds, utilizing the acetylcholinesterase inhibitor donepezil for illustration (See, Citations 1 and 2). The present inventors investigated the effect of each compound on reversal of scopolamine-induced deficits in performance of Y-maze test in mice, and they also investigated adjunctive effect of compounds with donepezil on reversal of deficits induced by scopolamine and MK801 in mice.
(§2) Used animal: ddY mouse (SLC)
(§3) In the experiments, the mice were grouped in the same way using Stat Preclinica (Version 1.03295; Takumi Information Technology Inc.). The selected mice were divided into 5 to 7 groups of 7 to 12 mice using the “completely randomization design by the single variable” program (Analytical program version 1.0.7), with body weight on the testing day. After grouping, p values for Bartlett's test and ANOVA across all groups were greater than 0.2, indicating no significant difference in this parameter among the groups.
The required amount of each compound was weighed and put into a glass homogenizer. The required amount of 0.5% MC (methyl cellulose) solution was added, and each compound was suspended to give a 10 mg/kg dosing suspension.
The required amount of donepezil was weighed and put into a glass homogenizer. The required amount of 0.5% MC solution was added, and donepezil was suspended to give a suspension at concentration of 1 mg/mL (10 mg/kg dosing suspension).
(§4) The required amount of scopolamine and MK801 were weighed, and saline was added to it to give 0.3 mg/mL and 0.015 mg/mL solution, respectively.
(§5) 90 Min before the test, the mice were orally administered each compound, donepezil, and vehicle (0.5% methyl cellulose, 10 mL/kg). After 60 min, memory impairment was induced by administering scopolamine (0.6 mg/kg, s.c.) with (co-administration) or without (mono-administration) MK801 (0.03 mg/kg, s.c.). The control group received saline (2 mL/kg, s.c.) rather than scopolamine and MK801.
(§6) The Y-maze used herein is a three-arm maze with equal angles between all arms. The mazefloor and walls were constructed from black acrylic resin. The mice were initially placed within one arm, and the sequence and number of arm entries were recorded manually for each mouse over an 8-min period.
(§7) Data were processed and analyzed with Microsoft® Office Excel 2003. The alternation behavior was defined as entries into all three arms on consecutive occasions. The percent alternation behavior in each animal was calculated using the following formula, and rounded to one decimal place.
(§8) Alternation behavior(%)=[actual alternation/(total arm entries−2)]×100
(§9) Restoration ratio of alternation behavior (%) in each animal was calculated using the following formula, and rounded to one decimal place.
(§10) Restoration ratio of alternation behavior in each animal (%)=y Alternation behavior in each animal (%)=x Mean of alternation behavior in vehicle-treated group (group No. 1) (%)=A Mean of alternation behavior in scopolamine-treated group (group No. 2) (%)=B
(§11) Data were expressed as the mean of the percent alternation behavior, the number of total arm entries and the restoration ratio of alternation behavior.
(§12) Values of Y-maze tests are expressed as mean of alternation behavior (n=7−12).
(§13) Alternation behaviors in the scopolamine-treated groups were compared to those in the control groups using Wilcoxon rank sum test (Stat preclinical; Version 1.03295; Takumi Information Technology Inc.) with a two-sided significance level of 0.05.
Restoration of alternation behavior was analyzed using Stat Preclinica. Alternation behaviors in the Donepezil (10 mg/kg, p.o.)-treated group were compared to those in the co-administrated groups of test compounds with donepezil (10 mg/kg, p.o.) using non-parametric Dunnett multiple comparison test (Analytical program version 1.0.2) with a two-sided significance level of 0.05.

[2] = target: T1, 5-HT4 receptor (Cavia porcellus, UniProt O70528); assay: Test Example 1: Serotonin 4 (5-HT4) receptor binding assay, [3H]-GR113808, guinea pig striatum membranes (Table 96); settings: Guinea pig 5-HT4 receptor binding assay, [3H]-GR113808, striatum membranes; mean value of each group
T1 construct: striatum was isolated which was cryopreserved at −80° C. until use; from tissue; host or cells: guinea pig (Slc-Hartley) striatum membranes
T1 sequence (O70528 whole entry): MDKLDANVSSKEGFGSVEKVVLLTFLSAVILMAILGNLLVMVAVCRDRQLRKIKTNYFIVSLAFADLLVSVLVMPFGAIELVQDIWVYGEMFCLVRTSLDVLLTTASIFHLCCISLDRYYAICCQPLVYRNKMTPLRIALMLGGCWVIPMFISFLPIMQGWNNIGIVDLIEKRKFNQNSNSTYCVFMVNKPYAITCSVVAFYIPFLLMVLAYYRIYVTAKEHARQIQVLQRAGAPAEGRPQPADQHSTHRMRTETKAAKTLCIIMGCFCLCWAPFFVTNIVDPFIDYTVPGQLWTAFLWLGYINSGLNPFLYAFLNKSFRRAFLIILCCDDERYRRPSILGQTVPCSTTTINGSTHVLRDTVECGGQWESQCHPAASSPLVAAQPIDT
Method: The 5-HT4 receptor binding assay and preparations of receptor membrane preparations herein were carried out according to a method of Grossman et al. [see, British J. Pharmacol., (1993) 109, 618].
Slc-Hartley guinea pigs (body weight 300 g to 400 g) were decapitated to remove brain rapidly, and striatum was isolated which was cryopreserved at −80° C. until use. To the obtained tissues were added fifteen fold of Hepes buffer (50 mM, pH 7.4, 4° C.), and the mixture was homogenized by Teflon (trademark) homogenizer and centrifuged at 48,000×g (4° C.) for 15 minutes. To the resulting precipitate was added Hepes buffer (1 ml) to 30 mg by wet weight of tissues, and the mixture was suspended to give receptor membrane preparations.
To an assay tube were added 0.1 nM [^3H]-GR113808 {chemical name: [1-[2-(methylsulfonylamino)ethyl]-4-piperidinyl]methyl 1-methylindole-3-carboxylate}, receptor membrane preparations, and Hepes buffer (50 mM, pH 7.4, 4° C., 1 ml) containing test compounds or 30 μM serotonin; and the mixture was incubated at 37° C. for 30 minutes. On quenching the reaction, the mixture was rapidly filtered on whatman GF/B filter, which was presoaked in 0.1% polyethyleneimine for 1 hour, by using Brandel cell Harvester, and washed with ice-cooled 50 mM Tris-HCl (pH 7.7, 4 ml) three times. To the filter after filtration was added a liquid scintillator (Ecoscint), and then a radioactivity was determined by a liquid scintillation counter.
50% Inhibition concentrations (IC50) were determined from inhibition rates of test compounds to specific bindings which were obtained by subtracting nonspecific bindings from total binding amounts of [^3H]-GR113808.
(§14) In the following table, the compounds used in the test are shown in numbers which correspond to the Example numbers above where the preparations of the compounds are described.

[3] = target: T2, human 5-HT4b receptor (Homo sapiens, UniProt Q13639); assay: Test Example 2: Serotonin 4 (5-HT4) receptor agonist activity assay, cAMP HTRF in CHO cells (Table 97); assay type: cell-based; settings: cAMP in CHO cells expressing human 5-HT4b receptor, mean value; for Emax: 0.25 h, intrinsic activity, maximal activity of 5-HT defined as 100%, read-out: IA (%); for pEC50: concentration showing 50% of IA
T2 construct: expressed in transfected cells; host or cells: CHO cells (G418 selection)
T2 sequence (Q13639 whole entry): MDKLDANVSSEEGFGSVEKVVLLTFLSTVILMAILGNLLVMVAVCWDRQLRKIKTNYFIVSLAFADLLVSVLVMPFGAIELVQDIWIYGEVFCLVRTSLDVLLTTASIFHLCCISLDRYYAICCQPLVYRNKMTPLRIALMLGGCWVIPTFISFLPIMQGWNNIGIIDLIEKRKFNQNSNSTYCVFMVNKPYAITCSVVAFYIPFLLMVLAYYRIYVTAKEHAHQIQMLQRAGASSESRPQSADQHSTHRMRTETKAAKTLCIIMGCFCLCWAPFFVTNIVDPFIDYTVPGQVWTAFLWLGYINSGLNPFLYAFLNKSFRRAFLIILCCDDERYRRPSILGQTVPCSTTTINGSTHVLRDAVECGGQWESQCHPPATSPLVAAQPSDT
Method: The cAMP measurement test used herein was carried out by using CISBIO HTRF (trademark) cAMP Hirange kit according to the manufacturer's instructions attached therewith.
CHO cells expressing human 5-HT4b receptor were incubated in Medium 1 [DMEM/1% NEAA, 1% penicillin/streptomycin (P/S), 0.2 mg/mL GENETICIN (G418), 10% FBS] at 37° C. under 5% CO2 condition. Then, the cells were put into Medium 2 (DMEM/10000 cut FBS, G-418, P/S, NEAA) for 1 to 2 hours, and collected by treating with trypsin containing EDTA. The collected cells were suspended in Assay Buffer 1 [100 mM Hanks/HEPES buffer (pH 7.4)], the suspended cells were mixed with the testing compound on 384-well plates, and the cells were incubated at 31° C. for 15 minutes. To the cells were added cAMP-cryptate solution and cAMP-d2 solution, and they were incubated at room temperature for 1 hour. Then, time-resolved fluorescence was measured by En Vision (excitation wavelength: 330 nm, fluorescence wavelength: 620/665 nm). An intrinsic activity of the compound [IA (%)] and a concentration showing 50% of IA [EC50 (nM)] were calculated from the obtained results. In particular, the intrinsic activity (IA) was calculated on the basis of the maximal activity of 5-HT (measured from 10^−11 M to 10^−7 M) defined as 100%.
as §14

[4] = test system: scopolamine-induced cognitive impairment; assay: Example 5: Y-maze test, scopolamine-induced cognitive impairment, single-agent administration (Table 101); assay type: in vivo, ddY mouse; settings: p.o., scopolamine-treated, # = P<0.05 vs scopolamine group
Text: as §1, §2, §3
The required amount of each compound was weighed and put into a glass homogenizer. […]
as §4, §5, §6, §7, §8, §9, §10, §11, §12, §13
Restoration of alternation behavior was analyzed using Stat Preclinica. Alternation behaviors in the vehicle-treated group were compared to those in the test substance-treated groups using non-parametric Dunnett multiple comparison test (Analytical program version 1.0.2) with a two-sided significance level of 0.05.

[5] = animal experiment using rats; cited from earlier work
[6] = phase II clinical trial with AD patients; cited from earlier work

Row | SMILES | pIC50 [2] | Emax [3] [%] | pEC50 [3] | also measured
1 | COc1cc2c(cc1OC)C(=O)C(CC1CCN(Cc3ccccc3)CC1)C2 (stereo not drawn) [Donepezil, donepezil, reference compound] | – | – | – | Alternation behavior (%) [1]: 51.5^# % and 49.9^# %
2 | CCc1nn(-c2noc(C3CCN(CCC4CCOCC4)CC3)n2)c2cc(F)ccc12 [Example 137, 3-ethyl-6-fluoro-1-(5-{1-[2-(tetrahydro-2H-pyran-4-yl)ethyl]piperidin-4-yl}-1,2,4-oxadiazol-3-yl)-1H-indazole] | > 7.70 | 66 | 8.07 | Alternation behavior (%) ([4]; compound 3 mg/kg): 49.3%; Alternation behavior (%) ([4]; compound 10 mg/kg): 62.6^# %
3 | CCc1nn(-c2noc(C3CCN(C[C@@H]4CCCN4C(=O)OC)CC3)n2)c2ccccc12 [Example 178, methyl (2S)-2-({4-[3-(3-ethyl-1H-indazol-1-yl)-1,2,4-oxadiazol-5-yl]piperidin-1-yl}methyl)pyrrolidine-1-carboxylate] | > 7.70 | 38 | 7.96 | –
4 | CCc1nn(-c2noc(C3CCN(C[C@@H]4CCCN4C(=O)OCCF)CC3)n2)c2c(F)cccc12 [Example 182, 2-fluoroethyl (2S)-2-({4-[3-(3-ethyl-7-fluoro-1H-indazol-1-yl)-1,2,4-oxadiazol-5-yl]piperidin-1-yl}methyl)pyrrolidine-1-carboxylate] | > 7.70 | 38 | 8.40 | –
5 | CCc1nn(-c2noc(C3CCN(C[C@@H]4CCN(C(=O)OCCF)C4)CC3)n2)c2ccccc12 [Example 195, 2-fluoroethyl (3S)-3-({4-[3-(3-ethyl-1H-indazol-1-yl)-1,2,4-oxadiazol-5-yl]piperidin-1-yl}methyl)pyrrolidine-1-carboxylate] | > 7.70 | 49 | 7.50 | –
6 | CCc1nn(-c2noc(C3CCN(C[C@H]4CCN(C(C)=O)C4)CC3)n2)c2cc(F)ccc12.Cl [Example 205, 1-[(3R)-3-({4-[3-(3-ethyl-6-fluoro-1H-indazol-1-yl)-1,2,4-oxadiazol-5-yl]piperidin-1-yl}methyl)pyrrolidin-1-yl]ethanone hydrochloride] | – | – | – | Alternation behavior (%) ([4]; compound 1 mg/kg): 66.9^# %; Alternation behavior (%) ([4]; compound 3 mg/kg): 54.8%; Alternation behavior (%) ([4]; compound 10 mg/kg): 66.7^# %
7 | CCc1nn(-c2noc(C3CCN(CC4CN(C(=O)OC)C4)CC3)n2)c2c(F)cccc12 [Example 218, methyl 3-({4-[3-(3-ethyl-7-fluoro-1H-indazol-1-yl)-1,2,4-oxadiazol-5-yl]piperidin-1-yl}methyl)azetidine-1-carboxylate] | – | – | – | Alternation behavior (%) ([4]; compound 1 mg/kg): 59.9%; Alternation behavior (%) ([4]; compound 3 mg/kg): 53%; Alternation behavior (%) ([4]; compound 10 mg/kg): 61.3%
8 | CCc1nn(-c2noc(C3CCN(C4CCN(C(C)=O)CC4)CC3)n2)c2cc(F)ccc12 [Example 228, 1-{4-[3-(3-ethyl-6-fluoro-1H-indazol-1-yl)-1,2,4-oxadiazol-5-yl]-1,4′-bipiperidin-1′-yl}ethanone hydrochloride] | 7.54 | 66 | 8.09 | –
9 | CCc1nn(-c2noc(C3CCN(C4CCN(C(C)=O)CC4)CC3)n2)c2c(F)cccc12 [Example 229, 1-{4-[3-(3-ethyl-7-fluoro-1H-indazol-1-yl)-1,2,4-oxadiazol-5-yl]-1,4′-bipiperidin-1′-yl}ethanone hydrochloride] | > 7.70 | 55 | 8.54 | –
10 | CCc1nn(-c2noc(C3CCN(C4CCN(C(=O)OC)CC4)CC3)n2)c2cc(F)ccc12 [Example 230, methyl 4-[3-(3-ethyl-6-fluoro-1H-indazol-1-yl)-1,2,4-oxadiazol-5-yl]-1,4′-bipiperidine-1′-carboxylate] | 7.60 | 65 | 7.75 | –
11 | CCc1nn(-c2noc(C3CN(C4CCN(C(=O)OC)CC4)C3)n2)c2ccccc12 [Example 257, methyl 4-{3-[3-(3-ethyl-1H-indazol-1-yl)-1,2,4-oxadiazol-5-yl]azetidin-1-yl}piperidine-1-carboxylate] | > 7.70 | 48 | 7.22 | –
12 | CCc1nn(-c2noc(C3CCN(CCCO)CC3)n2)c2ccccc12 [Example 261, 3-{4-[3-(3-ethyl-1H-indazol-1-yl)-1,2,4-oxadiazol-5-yl]piperidin-1-yl}propan-1-ol] | > 7.70 | 84 | 8.21 | –
13 | CC(C)n1c(=O)c(C(=O)NCCCN2CCCCC2)c(O)c2ccsc21 [PRX-03140] | – | – | – | improving cognitive function [5]: efficacious for improving cognitive function; lowering Aβ [5]: lowering Aβ; effect for improving cognitive function [6]: shows the effect for improving cognitive function
